# Reference: ChEMBL document CHEMBL4043292, “Discovery and Optimization of Phosphopantetheine Adenylyltransferase Inhibitors with Gram-Negative Antibacterial Activity” (J Med Chem, 2018)
# Assays:
# physchem [1] = details: buffer, pH 7.4
# Description: Lipophilicity, log D of the compound at pH 7.4
# Escherichia coli [2] = assay: microbe, parasite or virus in culture; details: JW5503-1, 20 h
# Description: Antibacterial activity against tolC deficient Escherichia coli JW5503-1 after 20 hrs by broth microdilution method
# Escherichia coli [3] = assay: microbe, parasite or virus in culture; details: BW25113, 20 h
# Description: Antibacterial activity against Escherichia coli BW25113 after 20 hrs by broth microdilution method
# [4] = Inhibition of PPAT in tolC deficient Escherichia coli JW5503-1 assessed as reduction in level of CoA-SH metabolite by mass spectrometric method
# [5] = Inhibition of PPAT in Escherichia coli BW25113 assessed as reduction in level of CoA-SH metabolite by mass spectrometric method
# physchem [6] = details: PBS
# Description: Solubility of the compound in PBS
# [7] = molecular target: T1, Bifunctional coenzyme A synthase (Homo sapiens) (UniProt Q13057)
# T1 sequence (whole entry): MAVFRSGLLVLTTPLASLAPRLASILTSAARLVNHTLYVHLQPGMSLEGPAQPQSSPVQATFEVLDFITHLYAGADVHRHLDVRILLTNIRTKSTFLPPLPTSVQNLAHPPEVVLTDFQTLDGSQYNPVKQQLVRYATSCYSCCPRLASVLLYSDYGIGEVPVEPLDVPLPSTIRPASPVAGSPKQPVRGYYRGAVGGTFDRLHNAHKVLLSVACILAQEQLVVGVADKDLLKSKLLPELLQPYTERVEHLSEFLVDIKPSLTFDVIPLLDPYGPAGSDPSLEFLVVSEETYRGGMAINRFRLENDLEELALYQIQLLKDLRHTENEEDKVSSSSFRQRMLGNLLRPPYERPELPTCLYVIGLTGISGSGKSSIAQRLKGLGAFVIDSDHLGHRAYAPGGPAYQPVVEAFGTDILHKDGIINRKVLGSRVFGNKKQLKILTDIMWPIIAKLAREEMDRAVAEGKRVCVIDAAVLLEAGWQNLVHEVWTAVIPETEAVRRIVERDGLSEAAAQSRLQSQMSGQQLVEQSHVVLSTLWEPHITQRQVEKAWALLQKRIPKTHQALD
# Description: Inhibition of human coaSY expressed in tolC deficient Escherichia coli JWK0002 assessed as bacterial growth inhibition after 20 hrs by broth microdilution method
# Escherichia coli [8] = assay: microbe, parasite or virus in culture; details: JW0451-2, 20 h
# Description: Antibacterial activity against acrB deficient Escherichia coli JW0451-2 after 20 hrs by broth microdilution method
# Escherichia coli [9] = assay: microbe, parasite or virus in culture; details: RFM795, 20 h
# Description: Antibacterial activity Escherichia coli RFM795 harboring frame deletion of 23 amino acids in lptD gene after 20 hrs by broth microdilution method
# Pseudomonas aeruginosa [10] = assay: microbe, parasite or virus in culture; details: PAO1, 20 h
# Description: Antibacterial activity against Pseudomonas aeruginosa PAO1 after 20 hrs by broth microdilution method
# Pseudomonas aeruginosa [11] = assay: microbe, parasite or virus in culture; details: ATCC 35151, 20 h
# Description: Antibacterial activity against Pseudomonas aeruginosa ATCC 35151 after 20 hrs by broth microdilution method
# Pseudomonas aeruginosa [12] = assay: microbe, parasite or virus in culture; details: K1119, 20 h
# Description: Antibacterial activity against mexAB deficient Pseudomonas aeruginosa K1119 after 20 hrs by broth microdilution method
SMILES,logD (physchem [1]),MIC (Escherichia coli [2]),MIC (Escherichia coli [3]),also measured
COC(=O)N1CCC(Sc2cccc([C@@H](CC#N)Nc3nc4nc(C)ccc4[nH]3)c2)CC1,3.7,0.06 µg/mL,64 µg/mL,–
Cc1cc(Nc2ccc3nc(C)sc3c2)n2nc(N[C@H](C)c3cccc(Cl)c3)nc2n1,4.4,1 µg/mL,> 128 µg/mL,–
Cc1cc(N2CCN(C)CC2)n2nc(N[C@H](C)c3cccc(Cl)c3)nc2n1,3.3,32 µg/mL,> 128 µg/mL,–
COC(=O)N1CCC(Cc2cccc([C@@H](CC#N)Nc3nc4nc(C)ccc4[nH]3)c2)(C(=O)O)CC1,0.02,16 µg/mL,> 128 µg/mL,–
COC(=O)c1ccc(Oc2cccc([C@@H](CC#N)Nc3nc4[nH]c(C)cc(=O)n4n3)c2)cc1,2,2 µg/mL,–,–
Cc1cc(NC[C@@H](N)c2cccc(F)c2)n2nc(N[C@H](CC#N)c3cccc(Cl)c3)nc2n1,3.7,0.25 µg/mL,64 µg/mL,–
Cc1cc(NC[C@@H](N)c2ccccn2)n2nc(N[C@H](CC#N)c3cccc(Cl)c3)nc2n1,1.9,2 µg/mL,> 128 µg/mL,–
COc1ccc(Oc2cccc([C@@H](C)Nc3nc4[nH]c(C)cc(=O)n4n3)c2)cc1,–,64 µg/mL,–,–
COC(=O)N1CCC(CO)(Cc2cccc([C@@H](CC#N)Nc3nc4nc(C)ccc4[nH]3)c2)CC1,–,1 µg/mL,> 128 µg/mL,–
Cc1cc(Nc2ccc(C)c(Cl)c2)n2nc(Cc3ccccc3)nc2n1,> 5,–,–,–
COC(=O)N1CCN(S(=O)(=O)c2cccc([C@@H](CC#N)Nc3nc4nc(C)ccc4[nH]3)c2)CC1,2,32 µg/mL,> 128 µg/mL,–
COC(=O)N1CCC(CCC(=O)O)(Cc2cccc([C@@H](CC#N)Nc3nc4nc(C)ccc4[nH]3)c2)CC1,–,0.5 µg/mL,> 128 µg/mL,–
Cc1cc(N2CCN(C)CC2)n2nc(N[C@H](CC#N)c3cccc(Cl)c3)nc2n1,2.4,4 µg/mL,> 128 µg/mL,IC50 [4]: 0.097 µM; IC50 [5]: 41 µM; solubility (physchem [6]): > 729 µg/mL
Cc1cc(NC[C@@H](N)c2ccccc2)n2nc(N[C@H](CC#N)c3cccc(Cl)c3)nc2n1,3.4,0.25 µg/mL,32 µg/mL,–
Cc1cc(NC[C@@H](N)c2ccc(F)cc2)n2nc(N[C@H](CC#N)c3cccc(Cl)c3)nc2n1,–,0.5 µg/mL,64 µg/mL,–
CO/N=C/C1(Cc2cccc([C@@H](CC#N)Nc3nc4nc(C)ccc4[nH]3)c2)CCN(C(=O)OC)CC1,3.5,0.25 µg/mL,> 128 µg/mL,–
Cc1cc(N2CCN(C)CC2)c2[nH]c(N[C@H](CC#N)c3cccc(Cl)c3)nc2n1,–,2 µg/mL,64 µg/mL,MIC [7]: 128 µg/mL; MIC (Escherichia coli [8]): 8 µg/mL; MIC (Escherichia coli [9]): 8 µg/mL; MIC (Pseudomonas aeruginosa [10]): > 128 µg/mL; MIC (Pseudomonas aeruginosa [11]): 128 µg/mL; MIC (Pseudomonas aeruginosa [12]): > 128 µg/mL
COC(=O)N1CCC(O)(Cc2cccc([C@@H](CC#N)Nc3nc4nc(C)ccc4[nH]3)c2)CC1,2.1,2 µg/mL,> 128 µg/mL,–
Cc1cc(NC[C@@H](N)c2cccnc2)n2nc(N[C@H](CC#N)c3cccc(Cl)c3)nc2n1,2.3,4 µg/mL,> 128 µg/mL,–
Cc1cc(NC[C@@H](N)c2c(C)noc2C)n2nc(N[C@H](CC#N)c3cccc(Cl)c3)nc2n1,–,1 µg/mL,> 128 µg/mL,–
Cc1cc(NC[C@@H](N)C2CC2)n2nc(N[C@H](CC#N)c3cccc(Cl)c3)nc2n1,1.3,8 µg/mL,> 128 µg/mL,–
COC(=O)N1CC[C@H](Cc2cccc([C@@H](CC#N)Nc3nc4nc(C)ccc4[nH]3)c2)C1,–,0.125 µg/mL,64 µg/mL,–
COC(=O)N1CCC(S(=O)(=O)c2cccc([C@@H](CC#N)Nc3nc4nc(C)ccc4[nH]3)c2)CC1,1.9,2 µg/mL,> 128 µg/mL,–
COC(=O)N1CCC(CNCCO)(Cc2cccc([C@@H](CC#N)Nc3nc4nc(C)ccc4[nH]3)c2)CC1,–,32 µg/mL,> 128 µg/mL,–
COC(=O)N1CCC(CCCO)(Cc2cccc([C@@H](CC#N)Nc3nc4nc(C)ccc4[nH]3)c2)CC1,–,0.25 µg/mL,> 128 µg/mL,–
